The values below come from patent US20210353631A1, “1,4-Benzoxazines for the Treatment of Cancers and Other Neurodegenerative Diseases” (Neugeneron LLC, priority 2020, published 2021).

One assay deals with panel of 20 kinases. The following applies: 500 nM; previous analyses; cited from earlier work.
For another assay, the target named is GSK3β (Homo sapiens, UniProt P49841). Particulars: kinome profiling studies; cited from earlier work.
The target of a further assay is p38 MAPK. Particulars: kinome profiling studies; cited from earlier work.
Assay [1] addresses cyclin-dependent kinases (CDKs). The following applies: kinome profiling studies; cited from earlier work.
The test system of the next assay is mouse model of HD. Particulars: cited from earlier work.
The next assay has as its system fly model of AD. The following applies: widely-used fly model of AD; cited from earlier work.
Assay [2] has as its system cell culture models of neurodegeneration. The following applies: cited from earlier work.
A further assay relates to 451 kinases. Put plainly: Kinome profiling, count of kinases inhibited in the whole panel. The following applies: substantially defined as over 36% inhibition at 1 uM. The assay is classed as binding.

Chain of GSK3β (P49841 whole entry): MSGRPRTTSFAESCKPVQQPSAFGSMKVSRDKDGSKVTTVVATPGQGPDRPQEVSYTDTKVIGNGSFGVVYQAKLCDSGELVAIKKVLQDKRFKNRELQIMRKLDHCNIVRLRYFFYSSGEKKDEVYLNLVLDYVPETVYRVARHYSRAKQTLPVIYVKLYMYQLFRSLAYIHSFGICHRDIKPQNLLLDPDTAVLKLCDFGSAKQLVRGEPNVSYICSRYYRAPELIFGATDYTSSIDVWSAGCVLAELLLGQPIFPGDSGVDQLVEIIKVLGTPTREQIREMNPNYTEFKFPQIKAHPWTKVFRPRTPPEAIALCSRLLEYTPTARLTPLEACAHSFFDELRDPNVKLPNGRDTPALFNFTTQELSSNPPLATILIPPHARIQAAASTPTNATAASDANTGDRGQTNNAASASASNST

Consider `Nc1ccc2c(c1)NC(=O)/C(=C/c1cc(Br)c(O)c(Br)c1)O2` [HSB-13], for which, in the assay on panel of 20 kinases, the “kinases inhibited out of a panel of 20 kinases” value is on record as 3. The “kinase inhibition (in words)” value (on GSK3β; at p38 MAPK; in assay [1]) was “most inhibited” each time. Besides, the behavioral performance result in the assay with mouse model of HD was “improved behavioral performance”. Further, the neurodegeneration entry in the assay with mouse model of HD is given as “prevented neurodegeneration”. The protection result with fly model of AD was “protective”. Besides, in assay [2], the “protection against neuronal loss” value is “protective”.
Turning to `O=C1Nc2ccc(I)cc2/C1=C/c1cc(Br)c(O)c(Br)c1` [GW5074, reference compound], the “kinases inhibited substantially of the 451 kinases tested” value with 451 kinases is on record as 21.
